Measurements from ChEMBL document CHEMBL1137300, “Identification of the brominated flame retardant 1,2-dibromo-4-(1,2-dibromoethyl)cyclohexane as an androgen agonist” (J Med Chem, 2006).
pIC50: −log10 of the molar value.

Legend:
[1] = target: T1, Androgen receptor (Homo sapiens, UniProt P10275); assay: Activity against human androgen receptor expressed in HepG2 cells assessed as luciferase reporter gene activation
T1 sequence (P10275 whole entry): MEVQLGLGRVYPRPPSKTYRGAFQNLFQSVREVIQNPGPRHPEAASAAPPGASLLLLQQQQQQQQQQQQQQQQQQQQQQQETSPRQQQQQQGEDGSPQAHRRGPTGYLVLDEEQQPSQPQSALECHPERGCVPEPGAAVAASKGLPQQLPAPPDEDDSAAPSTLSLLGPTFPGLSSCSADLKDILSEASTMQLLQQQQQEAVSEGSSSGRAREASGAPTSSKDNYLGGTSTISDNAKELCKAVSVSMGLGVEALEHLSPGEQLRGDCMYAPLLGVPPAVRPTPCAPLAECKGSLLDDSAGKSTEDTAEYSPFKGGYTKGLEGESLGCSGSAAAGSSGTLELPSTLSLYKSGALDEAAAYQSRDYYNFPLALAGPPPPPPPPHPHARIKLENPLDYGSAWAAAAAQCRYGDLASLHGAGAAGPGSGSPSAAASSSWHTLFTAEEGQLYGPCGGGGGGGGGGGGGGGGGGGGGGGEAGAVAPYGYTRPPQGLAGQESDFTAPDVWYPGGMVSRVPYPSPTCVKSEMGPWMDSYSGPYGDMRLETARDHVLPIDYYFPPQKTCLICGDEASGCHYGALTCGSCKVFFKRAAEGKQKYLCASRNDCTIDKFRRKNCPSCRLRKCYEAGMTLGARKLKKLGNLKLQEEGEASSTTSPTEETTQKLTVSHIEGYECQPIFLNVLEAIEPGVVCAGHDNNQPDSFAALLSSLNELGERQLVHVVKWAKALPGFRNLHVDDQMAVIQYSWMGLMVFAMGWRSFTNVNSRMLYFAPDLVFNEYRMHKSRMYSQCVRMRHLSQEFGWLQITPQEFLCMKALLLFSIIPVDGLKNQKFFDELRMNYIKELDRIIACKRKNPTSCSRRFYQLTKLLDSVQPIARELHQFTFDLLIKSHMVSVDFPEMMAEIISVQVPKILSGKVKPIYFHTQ

[2] = target: T2, Androgen receptor (Rattus norvegicus, UniProt P15207); assay: Displacement of androgen fluormone from rat androgen receptor
T2 sequence (P15207 whole entry): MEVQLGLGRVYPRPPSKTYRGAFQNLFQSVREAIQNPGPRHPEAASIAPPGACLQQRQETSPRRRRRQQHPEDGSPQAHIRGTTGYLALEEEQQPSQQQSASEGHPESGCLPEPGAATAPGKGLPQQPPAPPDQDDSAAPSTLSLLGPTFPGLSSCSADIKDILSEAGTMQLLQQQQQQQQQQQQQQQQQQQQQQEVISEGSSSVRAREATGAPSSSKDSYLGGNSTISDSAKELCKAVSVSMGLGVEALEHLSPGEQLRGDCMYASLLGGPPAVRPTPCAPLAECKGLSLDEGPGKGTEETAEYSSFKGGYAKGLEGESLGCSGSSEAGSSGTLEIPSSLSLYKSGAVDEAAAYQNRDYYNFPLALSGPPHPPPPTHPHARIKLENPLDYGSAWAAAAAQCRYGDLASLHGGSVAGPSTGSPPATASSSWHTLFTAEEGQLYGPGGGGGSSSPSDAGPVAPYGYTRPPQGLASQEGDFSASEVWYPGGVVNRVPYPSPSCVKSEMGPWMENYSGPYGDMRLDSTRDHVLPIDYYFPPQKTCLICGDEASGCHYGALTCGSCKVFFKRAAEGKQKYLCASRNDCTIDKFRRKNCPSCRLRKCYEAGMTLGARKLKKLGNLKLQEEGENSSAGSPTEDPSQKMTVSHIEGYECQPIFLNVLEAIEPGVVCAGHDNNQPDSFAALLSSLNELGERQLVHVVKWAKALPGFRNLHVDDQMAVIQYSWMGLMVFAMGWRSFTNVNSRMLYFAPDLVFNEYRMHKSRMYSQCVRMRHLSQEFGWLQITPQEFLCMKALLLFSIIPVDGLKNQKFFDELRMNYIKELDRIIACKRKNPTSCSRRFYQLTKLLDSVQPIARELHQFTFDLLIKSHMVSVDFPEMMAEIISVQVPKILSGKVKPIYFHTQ

SMILES: BrCC(Br)C1CCC(Br)C(Br)C1 (configuration not stated)
- pIC50 [1]: 7.37
- pIC50 [2]: 6.79
